These results are taken from article PMC9570594, “Development of Novel Pyridine-Thiazole Hybrid Molecules as Potential Anticancer Agents” (Molecules, 2022).

Molecules are shown by their SMILES. Bounds are passed on as bounds.

One series concerns T-47D (Brest Cancer). Nature of the series: NCI one-dose SRB assay. The note with it: 10 μM, 48 h.
Series [1] relates to human epidermal keratinocytes of HaCaT line. In words: MTT assay of cell viability. The note with it: 72 h.
The test system of a further series is SK-OV-3 (ovarian). In words: MTT assay of cell viability. The note with it: Homo sapiens, SK-OV-3, 72 h.
Series [2] concerns murine macrophages of J774.2 line. In words: MTT assay of cell viability. The note with it: Mus musculus, J774.2, 72 h.
Another series deals with SR (Leukemia). Nature of the series: NCI one-dose SRB assay. The note with it: 10 μM, 48 h.
A further series concerns A549 (lung). In words: MTT assay of cell viability. The note with it: Homo sapiens, A549, 72 h.
For a further series, the system named is SK Mel-5 (Melanoma). In words: NCI one-dose SRB assay. The note with it: 10 μM, 48 h.
The test system of series [3] is HCT-116 p53 (−/−) colon cancer cells. In words: MTT assay of cell viability. Particulars: Homo sapiens, HCT-116, 72 h.
Text: The cell lines used in our work were kindly provided by a Collection at the Institute of Molecular Biology and Genetics, National Academy of Sciences of Ukraine (Kyiv, Ukraine).
Series [4] deals with panel of 60 cancer cell lines. Nature of the series: NCI DTP one-dose primary anticancer assay (10^-5 M, SRB). The note with it: 10 μM.
Experimental: (§1) Primary anticancer assays (Table 3) on a panel of 60 cancer cell lines at one dose-assay (10^−5 M) were performed according to the NCI protocol, as described elsewhere [31, 32, 33, 34, 35].
(§2) A primary anticancer assay was performed on a panel of approximately sixty human tumor cell lines derived from nine neoplastic diseases, in accordance with the protocol of the Drug Evaluation Branch, National Cancer Institute, Bethesda [31, 32, 33, 34, 35]. Tested compounds were added to the culture at a single concentration (10^−5 M) and the cultures were incubated for 48 h. End point determinations were made with a protein binding dye, Sulphorhodamine B (SRB). […] The percentage growth was evaluated spectrophotometrically versus controls not treated with test agents.
In a further series the test system is KB3-1 (cervix). In words: MTT assay of cell viability. The note with it: Homo sapiens, KB 3-1, 72 h, KB3-1; 72 h of incubation, M ± SD.
The test system of another series is K-562 (Leukemia). Nature of the series: NCI one-dose SRB assay. The note with it: 10 μM, 48 h.
A further series deals with Jurkat (leukemia). Nature of the series: MTT assay of cell viability. Particulars: Homo sapiens, 72 h.
In a further series the test system is MCF-7 (breast). Nature of the series: MTT assay of cell viability. Particulars: Homo sapiens, MCF7, 72 h, MCF-7; 72 h of incubation, M ± SD.
The next series has as its system HCT-116 (colon). Nature of the series: MTT assay of cell viability. The note with it: Homo sapiens, HCT-116, 72 h, HCT-116; 72 h of incubation, M ± SD.

Experimental for K-562 (Leukemia): as §1, §2
Experimental for SK Mel-5 (Melanoma): (§3) Tested compounds were added to the culture at a single concentration (10^−5 M) and the cultures were incubated for 48 h. End point determinations were made with a protein binding dye, Sulphorhodamine B (SRB). […] The percentage growth was evaluated spectrophotometrically versus controls not treated with test agents.
Experimental for SR (Leukemia): as §1, §2
Experimental for T-47D (Brest Cancer): as §3

As for `CC(=O)N1N=C(c2sc(Nc3ccccn3)nc2C)CC1c1ccccc1F` (stereo not shown) [Compound 6, 1-{5-(2-Fluorophenyl)-3-[4-methyl-2-(2-pyridylamino)-thiazol-5-yl]-4,5-dihydropyrazol-1-yl}-ethanone], the Growth % in the series on T-47D (Brest Cancer) was 14.27%; in the series with SR (Leukemia) it was 12.53%; in the series on SK Mel-5 (Melanoma), 17.75%; in the series on K-562 (Leukemia) it was 15.62%. Also, the concentration for half-maximal inhibition (IC50) was > 50 µM in [1]; 39.6 ± 2.37 µM in the series on SK-OV-3 (ovarian); > 50 µM in series [2]; 63.4 ± 3.81 µM in the series with A549 (lung); 29.1 ± 1.45 µM in series [3]; 24.9 ± 0.74 µM in the series on KB3-1 (cervix). The IC50 in the series on Jurkat (leukemia) is > 100 µM; in the series with MCF-7 (breast) it was 45.4 ± 2.2 µM; with HCT-116 (colon), > 50 µM. In addition, in [4] (48 h, 60 cell lines), the “Range of Growth, %” value is 12.53–95.32%. In addition, the “Positive Cytostatic Effect” value in series [4] (number of cell lines with percent growth from 0 to 50 / total number of cell lines) is 32/59. The “Positive Cytotoxic Effect” value in series [4] (number of cell lines with percent growth of <0 / total number of cell lines) is reported as 0/59.
